The source of these data is article PMC8636726 (Synthetic and Systems Biotechnology, 2021).

The assay has as its target T1, EmbR protein (Mycobacterium tuberculosis, UniProt P9WGJ9).
T1 sequence (P9WGJ9 1-388): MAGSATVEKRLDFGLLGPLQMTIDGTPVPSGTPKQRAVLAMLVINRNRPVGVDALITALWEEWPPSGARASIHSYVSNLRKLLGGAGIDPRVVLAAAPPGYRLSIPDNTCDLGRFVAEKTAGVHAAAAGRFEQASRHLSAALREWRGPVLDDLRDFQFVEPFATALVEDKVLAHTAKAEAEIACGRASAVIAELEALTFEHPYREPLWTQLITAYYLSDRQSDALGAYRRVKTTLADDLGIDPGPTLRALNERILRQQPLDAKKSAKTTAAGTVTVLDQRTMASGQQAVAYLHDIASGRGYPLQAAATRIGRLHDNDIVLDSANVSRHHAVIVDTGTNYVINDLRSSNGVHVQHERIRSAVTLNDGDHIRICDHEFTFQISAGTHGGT
Type of assay: binding. To be noted: BLI, clinical TB drugs tested as controls under the same conditions.

For the molecule `CC[C@@H](CO)NCCN[C@@H](CC)CO` [EMB, Ethambutol], the “binding to EmbR” value is “no significant binding”.

In the case of `NNC(=O)c1ccncc1` [INH, isoniazid], the “binding to EmbR” value is “no significant binding”.

In the case of `CO[C@H]1/C=C/O[C@@]2(C)Oc3c(C)c(O)c4c(O)c(c(/C=N/N5CCN(C)CC5)c(O)c4c3C2=O)NC(=O)/C(C)=C\C=C\[C@H](C)[C@H](O)[C@@H](C)[C@@H](O)[C@@H](C)[C@H](OC(C)=O)[C@@H]1C` [RIF, rifampicin], the “binding to EmbR” value was “no significant binding”.
